Laboratory results: ChEMBL document CHEMBL3259629, “Discovery and optimization of piperidyl-1,2,3-triazole ureas as potent, selective, and in vivo-active inhibitors of α/β-hydrolase domain containing 6 (ABHD6)” (J Med Chem, 2013)

How the values were obtained:
Conditions in all cases: Neuro2a, 3 nM
[1] = biological target: Dipeptidyl peptidase 9 (Mus musculus) (UniProt Q8BVG4)
Description: Inhibition of DPP9 in mouse Neuro2a cells at 3 nM after 4 hrs by ABPP-SILAC assay

[2] = biological target: T1, Glutamyl-tRNA(Gln) amidotransferase subunit A, mitochondrial (Mus musculus) (UniProt Q9CZN8)
T1 sequence (whole entry): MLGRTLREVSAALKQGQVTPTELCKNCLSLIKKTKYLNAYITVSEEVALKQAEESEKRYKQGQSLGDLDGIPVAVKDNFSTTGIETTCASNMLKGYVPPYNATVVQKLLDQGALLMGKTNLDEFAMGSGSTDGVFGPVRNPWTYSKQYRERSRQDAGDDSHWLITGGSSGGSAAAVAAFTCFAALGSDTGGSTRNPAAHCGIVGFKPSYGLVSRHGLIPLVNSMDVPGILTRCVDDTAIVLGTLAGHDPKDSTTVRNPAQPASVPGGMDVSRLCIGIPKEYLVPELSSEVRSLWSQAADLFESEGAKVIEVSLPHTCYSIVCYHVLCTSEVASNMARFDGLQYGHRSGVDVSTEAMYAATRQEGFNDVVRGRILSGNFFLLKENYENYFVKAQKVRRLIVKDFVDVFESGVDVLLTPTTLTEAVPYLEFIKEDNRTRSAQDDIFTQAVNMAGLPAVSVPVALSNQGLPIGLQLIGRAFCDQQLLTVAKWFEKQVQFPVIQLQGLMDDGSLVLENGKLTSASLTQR
Description: Inhibition of Qrsl1 in mouse Neuro2a cells at 3 nM after 4 hrs by ABPP-SILAC assay

[3] = biological target: T2, Triacylglycerol hydrolase DDHD2 (Mus musculus) (UniProt Q80Y98)
T2 sequence (whole entry): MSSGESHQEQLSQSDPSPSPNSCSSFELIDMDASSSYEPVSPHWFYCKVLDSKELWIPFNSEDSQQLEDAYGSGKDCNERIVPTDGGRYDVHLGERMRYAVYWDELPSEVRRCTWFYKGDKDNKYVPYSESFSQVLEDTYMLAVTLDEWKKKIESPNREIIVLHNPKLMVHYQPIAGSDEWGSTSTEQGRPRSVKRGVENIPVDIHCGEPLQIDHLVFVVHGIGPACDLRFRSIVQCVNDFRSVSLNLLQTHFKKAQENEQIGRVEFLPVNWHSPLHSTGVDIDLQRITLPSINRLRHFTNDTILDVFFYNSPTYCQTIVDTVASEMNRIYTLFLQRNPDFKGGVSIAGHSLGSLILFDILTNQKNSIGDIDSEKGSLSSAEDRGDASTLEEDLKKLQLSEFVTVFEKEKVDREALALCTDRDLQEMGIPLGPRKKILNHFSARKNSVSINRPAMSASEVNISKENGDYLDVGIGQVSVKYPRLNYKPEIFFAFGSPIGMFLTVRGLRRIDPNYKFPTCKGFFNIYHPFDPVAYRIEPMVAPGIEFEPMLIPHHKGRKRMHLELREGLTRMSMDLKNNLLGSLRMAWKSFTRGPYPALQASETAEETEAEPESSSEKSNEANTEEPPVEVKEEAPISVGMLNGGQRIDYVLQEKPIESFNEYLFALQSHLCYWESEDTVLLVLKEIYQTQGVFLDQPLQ
Description: Inhibition of Ddhd2 in mouse Neuro2a cells at 3 nM after 4 hrs by ABPP-SILAC assay

[4] = biological target: T3, S-formylglutathione hydrolase (Mus musculus) (UniProt Q9R0P3)
T3 sequence (whole entry): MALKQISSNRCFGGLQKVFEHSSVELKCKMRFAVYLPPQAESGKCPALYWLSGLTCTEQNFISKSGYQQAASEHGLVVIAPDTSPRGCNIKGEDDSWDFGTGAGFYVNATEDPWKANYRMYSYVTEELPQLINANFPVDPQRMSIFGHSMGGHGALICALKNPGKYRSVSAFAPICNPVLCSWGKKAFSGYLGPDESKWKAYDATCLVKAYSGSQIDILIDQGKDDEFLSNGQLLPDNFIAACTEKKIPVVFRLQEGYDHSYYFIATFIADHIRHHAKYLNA
Description: Inhibition of Esd in mouse Neuro2a cells at 3 nM after 4 hrs by ABPP-SILAC assay

[5] = biological target: T4, Palmitoyl-protein thioesterase ABHD10, mitochondrial (Mus musculus) (UniProt Q6PE15)
T4 sequence (whole entry): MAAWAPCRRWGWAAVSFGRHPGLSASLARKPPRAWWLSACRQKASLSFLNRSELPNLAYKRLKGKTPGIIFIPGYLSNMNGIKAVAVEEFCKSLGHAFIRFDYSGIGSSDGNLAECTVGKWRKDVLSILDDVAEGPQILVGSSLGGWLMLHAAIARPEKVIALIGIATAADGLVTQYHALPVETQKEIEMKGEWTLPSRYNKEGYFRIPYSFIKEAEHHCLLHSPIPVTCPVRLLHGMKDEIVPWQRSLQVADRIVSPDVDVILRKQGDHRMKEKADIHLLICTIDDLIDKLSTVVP
Description: Inhibition of Abhd10 in mouse Neuro2a cells at 3 nM after 4 hrs by ABPP-SILAC assay

[6] = biological target: T5, Serine beta-lactamase-like protein LACTB, mitochondrial (Mus musculus) (UniProt Q9EP89)
T5 sequence (whole entry): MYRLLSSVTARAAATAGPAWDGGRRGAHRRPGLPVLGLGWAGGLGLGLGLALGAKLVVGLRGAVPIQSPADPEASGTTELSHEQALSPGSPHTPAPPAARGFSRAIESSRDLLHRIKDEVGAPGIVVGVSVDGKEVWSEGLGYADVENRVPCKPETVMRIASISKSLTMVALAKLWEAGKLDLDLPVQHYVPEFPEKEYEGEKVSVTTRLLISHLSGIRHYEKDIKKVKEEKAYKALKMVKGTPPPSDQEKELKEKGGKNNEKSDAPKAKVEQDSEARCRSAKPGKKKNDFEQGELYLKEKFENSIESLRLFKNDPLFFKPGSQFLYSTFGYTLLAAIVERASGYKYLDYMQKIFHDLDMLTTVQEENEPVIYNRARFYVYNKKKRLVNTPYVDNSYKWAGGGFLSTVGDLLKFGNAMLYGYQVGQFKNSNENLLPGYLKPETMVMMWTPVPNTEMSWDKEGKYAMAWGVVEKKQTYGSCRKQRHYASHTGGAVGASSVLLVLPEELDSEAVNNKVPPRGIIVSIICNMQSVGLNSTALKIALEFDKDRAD
Description: Inhibition of Lactb in mouse Neuro2a cells at 3 nM after 4 hrs by ABPP-SILAC assay

[7] = biological target: T6, Protein phosphatase methylesterase 1 (Mus musculus) (UniProt Q8BVQ5)
T6 sequence (whole entry): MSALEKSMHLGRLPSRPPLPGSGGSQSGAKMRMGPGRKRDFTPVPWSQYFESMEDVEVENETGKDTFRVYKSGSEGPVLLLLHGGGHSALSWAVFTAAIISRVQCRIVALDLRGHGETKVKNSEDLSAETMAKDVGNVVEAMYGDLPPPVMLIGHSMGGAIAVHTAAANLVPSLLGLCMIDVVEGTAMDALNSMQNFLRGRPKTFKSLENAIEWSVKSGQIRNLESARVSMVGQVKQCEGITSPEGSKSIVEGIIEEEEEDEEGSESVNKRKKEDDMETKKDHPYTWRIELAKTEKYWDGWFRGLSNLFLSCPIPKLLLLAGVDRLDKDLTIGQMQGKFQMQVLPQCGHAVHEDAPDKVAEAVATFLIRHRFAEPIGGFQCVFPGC
Description: Inhibition of Ppme1 in mouse Neuro2a cells at 3 nM after 4 hrs by ABPP-SILAC assay

Measured: inhibition

Sequence of Dipeptidyl peptidase 9 (Mus musculus) (Q8BVG4 whole entry): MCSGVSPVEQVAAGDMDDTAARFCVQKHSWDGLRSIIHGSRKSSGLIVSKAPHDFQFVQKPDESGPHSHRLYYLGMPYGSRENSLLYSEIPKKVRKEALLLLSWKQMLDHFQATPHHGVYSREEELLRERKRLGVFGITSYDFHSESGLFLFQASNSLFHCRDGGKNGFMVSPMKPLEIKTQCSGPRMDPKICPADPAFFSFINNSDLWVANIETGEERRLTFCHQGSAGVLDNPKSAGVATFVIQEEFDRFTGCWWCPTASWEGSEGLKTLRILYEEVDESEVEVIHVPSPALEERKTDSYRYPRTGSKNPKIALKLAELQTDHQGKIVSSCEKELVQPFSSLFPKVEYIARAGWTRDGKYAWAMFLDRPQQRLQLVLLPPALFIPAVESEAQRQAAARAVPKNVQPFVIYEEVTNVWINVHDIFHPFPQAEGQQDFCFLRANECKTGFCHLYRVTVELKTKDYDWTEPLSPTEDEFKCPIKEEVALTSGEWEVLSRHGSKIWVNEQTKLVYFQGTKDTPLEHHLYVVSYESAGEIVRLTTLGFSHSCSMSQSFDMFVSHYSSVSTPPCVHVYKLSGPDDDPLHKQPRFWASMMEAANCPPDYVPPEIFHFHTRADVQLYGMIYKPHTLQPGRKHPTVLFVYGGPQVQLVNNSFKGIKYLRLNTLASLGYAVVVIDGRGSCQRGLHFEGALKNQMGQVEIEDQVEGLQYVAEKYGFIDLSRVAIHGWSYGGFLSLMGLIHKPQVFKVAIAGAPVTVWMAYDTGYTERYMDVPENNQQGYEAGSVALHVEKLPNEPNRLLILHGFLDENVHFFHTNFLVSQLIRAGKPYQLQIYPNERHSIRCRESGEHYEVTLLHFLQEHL

O=C(N1CCCCC1c1ccccc1)n1cc(-c2ccc(-c3cccc(CO)c3)cc2)nn1 (racemic)
< 50%: all assays above

O=C(O)c1cccc(-c2ccc(-c3cn(C(=O)N4CCCCC4Cc4ccccc4)nn3)cc2)c1 (racemic)
< 50%: all assays above

O=C(c1cccc(-c2ccc(-c3cn(C(=O)N4CCCCC4c4ccccc4)nn3)cc2)c1)N1CCCCC1 (racemic)
< 50%: all assays above
